Numbered stars: 1 amine (or outer) side, 2 acyl side, 3 side chain; on linkers, the order of the positions; unused ones are H or OH. Square brackets hold non-standard residues; d marks the D form. Side chains are listed from the residue outwards. Peptide text beside a SMILES is read from it. * marks the point of attachment. TTDA(Palmitoyl) = CCCCCCCCCCCCCCCC(=O)NCCCOCCOCCOCCCN*; Phe(3,4-Cl2) = N[C@@H](Cc1ccc(Cl)c(Cl)c1)C(=O)O; Palmitoyl = CCCCCCCCCCCCCCCC(=O)*; Myristoyl = CCCCCCCCCCCCCC(=O)*; Suc = O=C(CCC(=O)[*:2])[*:1]; Nle = CCCC[C@H](N)C(=O)O; Octanoyl = CCCCCCCC(=O)*
What was measured:
C57BL/6 mice = experiment: Food intake in fasted mice after SC injection; assay type: in vivo; conditions: 5 mg/kg SC, 45 min after injection
Method in brief: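 Saline, PrRP or a lipidated analog was injected SC (1-10 mg/kg) after a 17 h fast with free water, animals housed singly.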

rat PrRP receptor = target: T1, rat PrRP receptor (Rattus norvegicus, UniProt Q64121); experiment: Competitive binding in RC-4B/C rat pituitary cells (125I-rat PrRP31); conditions: for % of PrRP31, RC-4B/C rat pituitary cells: affinity relative to PrRP31; for Ki: displacement of 125I-rat PrRP31, read-out: Ki, RC-4B/C rat pituitary cells ^25I-rat PrRP31
T1 construct: host or cells: RC-4B/C rat pituitary cell line
T1 sequence (Q64121 1-370): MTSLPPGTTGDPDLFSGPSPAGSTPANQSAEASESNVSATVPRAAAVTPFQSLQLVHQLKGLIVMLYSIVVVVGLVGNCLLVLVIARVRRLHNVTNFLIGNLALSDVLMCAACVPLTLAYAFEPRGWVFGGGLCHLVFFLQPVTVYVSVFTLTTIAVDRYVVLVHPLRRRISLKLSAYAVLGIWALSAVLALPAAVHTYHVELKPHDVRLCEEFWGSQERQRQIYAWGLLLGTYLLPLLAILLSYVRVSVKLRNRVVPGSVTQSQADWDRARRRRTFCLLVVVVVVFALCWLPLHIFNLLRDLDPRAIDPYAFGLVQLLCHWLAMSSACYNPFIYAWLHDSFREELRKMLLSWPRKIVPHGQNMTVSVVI
Method in brief: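 Displacement of rat 125I-PrRP31 ([…]) by test analogs, 10^−11–10^−4 mol·l^−1, on whole RC-4B/C cells, 60 min RT. Bound counts measured by γ-counter in duplicate, ≥3 repeats, analyzed by nonlinear one-site binding regression.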

[1] = target: T2, human PrRP receptor GPR10 (Homo sapiens, UniProt P49683); experiment: Competitive binding in CHO cells transfected with human GPR10 (human 125I-PrRP31); conditions: for % of PrRP31, GPR10 human receptor transfected in CHO cells: affinity relative to PrRP31; for Ki: CHO cells, human 125I-PrRP31, read-out: Ki, GPR10 human receptor transfected in CHO cells
T2 construct: host or cells: CHO cells
T2 sequence (P49683 1-370): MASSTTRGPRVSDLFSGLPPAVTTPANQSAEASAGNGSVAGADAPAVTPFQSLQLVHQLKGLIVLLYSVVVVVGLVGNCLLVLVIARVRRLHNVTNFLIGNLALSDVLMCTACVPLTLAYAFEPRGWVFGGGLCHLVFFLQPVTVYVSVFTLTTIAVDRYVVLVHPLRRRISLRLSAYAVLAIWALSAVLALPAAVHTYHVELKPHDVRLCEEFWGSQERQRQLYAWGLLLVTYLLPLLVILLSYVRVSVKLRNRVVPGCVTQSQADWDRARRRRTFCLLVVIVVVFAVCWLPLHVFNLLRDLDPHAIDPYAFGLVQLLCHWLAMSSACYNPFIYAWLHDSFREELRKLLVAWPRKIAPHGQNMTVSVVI
Method in brief: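 Values from one-site nonlinear regression of displacement curves: analogs (final 10^-11 to 10^-4 mol·l^-1) competed with 125I-PrRP31 (final 5×10^-11 mol·l^-1) on adherent human GPR10 CHO cells. Binding ran 1 h at room temperature, pH 7.4 buffer with NaCl, MgCl2, CaCl2, glucose, BSA; cell-bound radioactivity counted after NaOH lysis.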

SMILES	Food intake in mice % of saline-treated group (C57BL/6 mice) [%]	% of PrRP31, RC-4B/C rat pituitary cells (rat PrRP receptor) [%]	% of PrRP31, GPR10 human receptor transfected in CHO cells [1] [%]	Ki (rat PrRP receptor; RC-4B/C cells) [nM]	Displacement of rat 125I-PrRP binding (rat PrRP receptor; RC-4B/C cells, rat PrRP receptor)	Ki [1] [nM]	Displacement of human 125I-PrRP binding ([1]; human GPR10 receptor)
CCCCCCCCCCCCCCCC(=O)N[C@@H](CO)C(=O)N[C@@H](CCCNC(=N)N)C(=O)N[C@@H](C)C(=O)N[C@@H](Cc1c[nH]cn1)C(=O)N[C@@H](CCC(N)=O)C(=O)N[C@@H](Cc1c[nH]cn1)C(=O)N[C@@H](CO)C(=O)N[C@@H](CCCC)C(=O)N[C@@H](CCC(=O)O)C(=O)N[C@H](C(=O)N[C@@H](CCCNC(=N)N)C(=O)N[C@H](C(=O)N1CCC[C@H]1C(=O)N[C@@H](CC(=O)O)C(=O)N[C@H](C(=O)N[C@@H](CC(N)=O)C(=O)N1CCC[C@H]1C(=O)N[C@@H](C)C(=O)N[C@@H](Cc1c[nH]c2ccccc12)C(=O)N[C@@H](Cc1ccc(O)cc1)C(=O)N[C@H](C(=O)NCC(=O)N[C@@H](CCCNC(=N)N)C(=O)NCC(=O)N[C@H](C(=O)N[C@@H](CCCNC(=N)N)C(=O)N1CCC[C@H]1C(=O)N[C@H](C(=O)NCC(=O)N[C@@H](CCCNC(=N)N)C(=O)N[C@@H](Cc1ccccc1)C(N)=O)C(C)C)[C@@H](C)CC)[C@@H](C)O)[C@@H](C)CC)[C@@H](C)O)[C@@H](C)O [Analog 8] (Palmitoyl-SRAHQHS[Nle]ETRTPDINPAWYTGRGIRPVGRF-NH2)	7	967	128				
CCCCCCCC(=O)N[C@H](C(=O)N1CCC[C@H]1C(=O)N[C@@H](CC(=O)O)C(=O)N[C@H](C(=O)N[C@@H](CC(N)=O)C(=O)N1CCC[C@H]1C(=O)N[C@@H](C)C(=O)N[C@@H](Cc1c[nH]c2ccccc12)C(=O)N[C@@H](Cc1ccc(O)cc1)C(=O)N[C@@H](C)C(=O)N[C@@H](CO)C(=O)N[C@@H](CCCNC(=N)N)C(=O)NCC(=O)N[C@H](C(=O)N[C@@H](CCCNC(=N)N)C(=O)N1CCC[C@H]1C(=O)N[C@H](C(=O)NCC(=O)N[C@@H](CCCNC(=N)N)C(=O)N[C@@H](Cc1ccccc1)C(N)=O)C(C)C)[C@@H](C)CC)[C@@H](C)CC)[C@@H](C)O [Analog 39] (Octanoyl-TPDINPAWYASRGIRPVGRF-NH2)	100	530	201	0.93 ± 0.23	nmol·l^−1 range	1.94 ± 0.32	nmol·l^−1 range
CCCCCCCCCCCCCCCC(=O)NCCCOCCOCCOCCCNC(=O)CCC(=O)NCCCC[C@H](NC(=O)[C@@H](NC(=O)[C@H](CCC(=O)O)NC(=O)[C@H](CCSC)NC(=O)[C@H](CO)NC(=O)[C@H](Cc1c[nH]cn1)NC(=O)[C@H](CCCNC(=N)N)NC(=O)[C@H](Cc1c[nH]cn1)NC(=O)[C@@H](NC(=O)[C@H](CCC(=O)O)NC(=O)[C@@H](N)CO)[C@@H](C)O)[C@@H](C)CC)C(=O)N[C@H](C(=O)N1CCC[C@H]1C(=O)N[C@@H](CC(=O)O)C(=O)N[C@H](C(=O)N[C@@H](CC(N)=O)C(=O)N1CCC[C@H]1C(=O)N[C@@H](C)C(=O)N[C@@H](Cc1c[nH]c2ccccc12)C(=O)N[C@@H](Cc1ccc(O)cc1)C(=O)N[C@@H](C)C(=O)N[C@@H](CO)C(=O)N[C@@H](CCCNC(=N)N)C(=O)NCC(=O)N[C@H](C(=O)N[C@@H](CCCNC(=N)N)C(=O)N1CCC[C@H]1C(=O)N[C@H](C(=O)NCC(=O)N[C@@H](CCCNC(=N)N)C(=O)N[C@@H](Cc1ccccc1)C(N)=O)C(C)C)[C@@H](C)CC)[C@@H](C)CC)[C@@H](C)O [Analog 58] (H-SETHRHSMEIK([Suc-TTDA(Palmitoyl)])TPDINPAWYASRGIRPVGRF-NH2; N-terminus assumed)	7	575	103				
CCCCCCCCCCCCCCCC(=O)N[C@@H](CO)C(=O)N[C@@H](CCCNC(=N)N)C(=O)N[C@@H](C)C(=O)N[C@@H](Cc1c[nH]cn1)C(=O)N[C@@H](CCC(N)=O)C(=O)N[C@@H](Cc1c[nH]cn1)C(=O)N[C@@H](CO)C(=O)N[C@@H](CCCC)C(=O)N[C@@H](CCC(=O)O)C(=O)N[C@H](C(=O)N[C@@H](CCCNC(=N)N)C(=O)N[C@H](C(=O)N1CCC[C@H]1C(=O)N[C@@H](CC(=O)O)C(=O)N[C@H](C(=O)N[C@@H](CC(N)=O)C(=O)N1CCC[C@H]1C(=O)N[C@@H](C)C(=O)N[C@@H](Cc1c[nH]c2ccccc12)C(=O)N[C@@H](Cc1ccc(O)cc1)C(=O)N[C@H](C(=O)NCC(=O)N[C@@H](CCCNC(=N)N)C(=O)NCC(=O)N[C@H](C(=O)N[C@@H](CCCNC(=N)N)C(=O)N1CCC[C@H]1C(=O)N[C@H](C(=O)NCC(=O)N[C@@H](CCCNC(=N)N)C(=O)N[C@@H](Cc1ccc(Cl)c(Cl)c1)C(N)=O)C(C)C)[C@@H](C)CC)[C@@H](C)O)[C@@H](C)CC)[C@@H](C)O)[C@@H](C)O [Analog 15] (Palmitoyl-SRAHQHS[Nle]ETRTPDINPAWYTGRGIRPVGR[Phe(3,4-Cl2)]-NH2)	5	379	370	1.3 ± 0.29		1.05 ± 0.41	
CCCCCCCCCCCCCCCC(=O)N[C@@H](CO)C(=O)N[C@@H](CCCNC(=N)N)C(=O)N[C@@H](C)C(=O)N[C@@H](Cc1c[nH]cn1)C(=O)N[C@@H](CCC(N)=O)C(=O)N[C@@H](Cc1c[nH]cn1)C(=O)N[C@@H](CO)C(=O)N[C@@H](CCCC)C(=O)N[C@@H](CCC(=O)O)C(=O)N[C@H](C(=O)N[C@@H](CCCNC(=N)N)C(=O)N[C@H](C(=O)N1CCC[C@H]1C(=O)N[C@@H](CC(=O)O)C(=O)N[C@H](C(=O)N[C@@H](CC(N)=O)C(=O)N1CCC[C@H]1C(=O)N[C@@H](C)C(=O)N[C@@H](Cc1c[nH]c2ccccc12)C(=O)N[C@@H](Cc1ccc(O)cc1)C(=O)N[C@H](C(=O)NCC(=O)N[C@@H](CCCNC(=N)N)C(=O)NCC(=O)N[C@H](C(=O)N[C@@H](CCCNC(=N)N)C(=O)N1CCC[C@H]1C(=O)N[C@H](C(=O)NCC(=O)N[C@@H](CCCNC(=N)N)C(=O)N[C@@H](Cc1ccc(O)cc1)C(N)=O)C(C)C)[C@@H](C)CC)[C@@H](C)O)[C@@H](C)CC)[C@@H](C)O)[C@@H](C)O [Analog 24] (Palmitoyl-SRAHQHS[Nle]ETRTPDINPAWYTGRGIRPVGRY-NH2)	22	1120	248				
CCCCCCCCCCCCCC(=O)N[C@@H](CO)C(=O)N[C@@H](CCCNC(=N)N)C(=O)N[C@@H](C)C(=O)N[C@@H](Cc1c[nH]cn1)C(=O)N[C@@H](CCC(N)=O)C(=O)N[C@@H](Cc1c[nH]cn1)C(=O)N[C@@H](CO)C(=O)N[C@@H](CCCC)C(=O)N[C@@H](CCC(=O)O)C(=O)N[C@H](C(=O)N[C@@H](CCCNC(=N)N)C(=O)N[C@H](C(=O)N1CCC[C@H]1C(=O)N[C@@H](CC(=O)O)C(=O)N[C@H](C(=O)N[C@@H](CC(N)=O)C(=O)N1CCC[C@H]1C(=O)N[C@@H](C)C(=O)N[C@@H](Cc1c[nH]c2ccccc12)C(=O)N[C@@H](Cc1ccc(O)cc1)C(=O)N[C@H](C(=O)NCC(=O)N[C@@H](CCCNC(=N)N)C(=O)NCC(=O)N[C@H](C(=O)N[C@@H](CCCNC(=N)N)C(=O)N1CCC[C@H]1C(=O)N[C@H](C(=O)NCC(=O)N[C@@H](CCCNC(=N)N)C(=O)N[C@@H](Cc1ccccc1)C(N)=O)C(C)C)[C@@H](C)CC)[C@@H](C)O)[C@@H](C)CC)[C@@H](C)O)[C@@H](C)O [Analog 7] (Myristoyl-SRAHQHS[Nle]ETRTPDINPAWYTGRGIRPVGRF-NH2)	3	714	548				
